The record followed here is PubChem BioAssay (NCI).

Among the test systems are HOP-92 NSCLC; SN12C renal; NCI-H226 lung; U251 CNS; NCI/ADR-RES ovarian; OVCAR-4 ovarian; HCT-15 colon; EKVX NSCLC; HL-60(TB) leukemia; SR leukemia.
Common to all, as to assay: inhibition of tumour cell growth, NCI panel, 48 h

Each structure is given as a SMILES string.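 Exposure lasted 48 hours, with cells grown in 96-well plates and compounds tested at five concentrations. GI50 marks 50% less growth. At the TGI there is no net growth.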 Where only a bound is given, the exact number is not on record here.

Consider `N#Cc1cccc(OCc2ccccc2COc2cccc(C#N)c2)c1`, for which the GI50 was 2.36 µM with HOP-92 NSCLC; 19 µM in the experiment on SN12C renal; 29.1 µM in the experiment with NCI-H226 lung; 19.4 µM with U251 CNS; 50.1 µM in the experiment on NCI/ADR-RES ovarian; 54.8 µM in the experiment with OVCAR-4 ovarian. For the same compound, the GI50 in the experiment with HCT-15 colon was more than 100 µM; with EKVX NSCLC, 28.3 µM. Besides, the TGI in the experiment with HOP-92 NSCLC was 15.4 µM; in the experiment with SN12C renal, 73.1 µM; in the experiment on NCI-H226 lung, 88.1 µM; in the experiment with U251 CNS, 43.4 µM; in the experiment on NCI/ADR-RES ovarian, more than 100 µM; in the experiment on OVCAR-4 ovarian it was more than 100 µM. The TGI with HCT-15 colon is more than 100 µM; with EKVX NSCLC, 69.2 µM.
`C#CCN(Cc1nc2cc(C(F)(F)F)ccc2nc1-c1ccccc1)c1ccc(F)c(F)c1`: the GI50 was 59.5 µM in the experiment with HOP-92 NSCLC; 46.2 µM in the experiment on SN12C renal; 92.5 µM in the experiment on NCI-H226 lung; 66.5 µM in the experiment on U251 CNS; 39 µM in the experiment on HL-60(TB) leukemia; 56.1 µM with NCI/ADR-RES ovarian. Besides, the GI50 in the experiment on OVCAR-4 ovarian is more than 100 µM; in the experiment with HCT-15 colon, 37.4 µM; with EKVX NSCLC, 17 µM. Further, the TGI in the experiment on HOP-92 NSCLC, in the experiment on SN12C renal, in the experiment with NCI-H226 lung, in the experiment on U251 CNS, with HL-60(TB) leukemia and in the experiment on NCI/ADR-RES ovarian was more than 100 µM each time. In addition, the TGI with OVCAR-4 ovarian is more than 100 µM; in the experiment on HCT-15 colon it was more than 100 µM; with EKVX NSCLC, 57.2 µM.
On to `CN(C)CCNc1nc(-c2cccs2)cc(-c2cccs2)n1`, for which the TGI in the experiment on HOP-92 NSCLC stood at 8.7 µM; with SN12C renal it was 27.4 µM; in the experiment on NCI-H226 lung, 30.5 µM; with U251 CNS, 24.4 µM; with HCT-15 colon, 33.2 µM; in the experiment on SR leukemia, 15.4 µM.
Turning to `OCC(O)C(OC1OC(CO)C(O)C(O)C1O)c1nn(-c2ccccc2)c2nc3cc(Cl)ccc3nc12` (centres undefined), the TGI in the experiment on SN12C renal, in the experiment on U251 CNS, with OVCAR-4 ovarian, with HCT-15 colon, in the experiment on EKVX NSCLC and in the experiment on SR leukemia was more than 100 µM in each case.
Consider `NCP(=O)(O)OCC(=O)O`, for which the TGI in the experiment with HOP-92 NSCLC, with SN12C renal, in the experiment with U251 CNS, in the experiment on HL-60(TB) leukemia, in the experiment with OVCAR-4 ovarian and in the experiment on HCT-15 colon was more than 100 µM each time. Further, the TGI with EKVX NSCLC and in the experiment on SR leukemia was more than 100 µM throughout.
For the compound `N#C/C(=C\c1ccccc1Br)C(=O)c1ccccc1`, the TGI was more than 100 µM with HOP-92 NSCLC; more than 76.6 µM in the experiment on SN12C renal; more than 78.2 µM in the experiment with NCI-H226 lung; more than 71.4 µM in the experiment with U251 CNS; 15.9 µM in the experiment with HL-60(TB) leukemia; 58.8 µM with OVCAR-4 ovarian. For the same compound, the TGI in the experiment with HCT-15 colon is more than 47.2 µM; in the experiment on EKVX NSCLC, more than 100 µM; with SR leukemia, more than 83.8 µM.
On to `Cc1ccc(NC(=O)CCC(=O)C(C#N)c2ccccc2)cc1C` (centres undefined), for which the TGI in the experiment on HOP-92 NSCLC, in the experiment on SN12C renal, with NCI-H226 lung, in the experiment on U251 CNS, in the experiment with HL-60(TB) leukemia and in the experiment on OVCAR-4 ovarian was more than 100 µM each time. For the same compound, the TGI in the experiment on HCT-15 colon and with EKVX NSCLC was more than 100 µM each time.
Regarding `CC(=O)CC(=O)/C=C/c1cccs1`, the TGI in the experiment with SN12C renal was more than 100 µM; with NCI-H226 lung, more than 100 µM; in the experiment on U251 CNS, more than 100 µM; with HL-60(TB) leukemia, 72.5 µM; in the experiment with OVCAR-4 ovarian, more than 100 µM; in the experiment with HCT-15 colon, more than 100 µM. Further, the TGI with EKVX NSCLC and with SR leukemia was more than 100 µM in each case.
On to `CC(=O)N1CCN(CCOc2ccc(C3CCN(C4=Nn5c(nnc5C(F)(F)F)CC4)CC3)cc2)CC1`, for which the GI50 in the experiment with HOP-92 NSCLC is 7.64 µM; with SN12C renal, 14.5 µM; with NCI-H226 lung it was 34.8 µM; with U251 CNS, 47.9 µM; in the experiment on HL-60(TB) leukemia it was 4.41 µM; in the experiment on NCI/ADR-RES ovarian, 37 µM. Further, the GI50 in the experiment on OVCAR-4 ovarian is 8.55 µM; in the experiment on HCT-15 colon it was 14 µM; with EKVX NSCLC it was 14.7 µM. Further, the TGI with HOP-92 NSCLC is more than 100 µM; in the experiment on SN12C renal it was more than 100 µM; in the experiment with NCI-H226 lung, more than 100 µM; in the experiment on U251 CNS, more than 100 µM; in the experiment with HL-60(TB) leukemia, 99.4 µM; with NCI/ADR-RES ovarian, more than 100 µM. Further, the TGI in the experiment on OVCAR-4 ovarian, with HCT-15 colon and with EKVX NSCLC was more than 100 µM throughout.
As for `C#Cc1cc2c(N)c(C(=O)c3cc(OC)c(OC)c(OC)c3)[nH]c2cc1OC`, the GI50 in the experiment with HOP-92 NSCLC is 0.334 µM; with SN12C renal, 11.2 µM; in the experiment with NCI-H226 lung, 5.74 µM; with U251 CNS, 0.691 µM; in the experiment on OVCAR-4 ovarian it was 0.987 µM; with HCT-15 colon, 0.46 µM. Further, the GI50 with SR leukemia was 0.381 µM. Moreover, the TGI was 37.7 µM with HOP-92 NSCLC; more than 100 µM with SN12C renal; more than 100 µM in the experiment with NCI-H226 lung; more than 100 µM in the experiment with U251 CNS; more than 100 µM with OVCAR-4 ovarian; more than 100 µM in the experiment on HCT-15 colon. The compound also returned a TGI in the experiment with SR leukemia of more than 100 µM.
Turning to `O=C(NCCCCOCC#Cc1ccccc1C#CCS(=O)(=O)c1ccccc1)c1cc2ccccc2[nH]1`, the GI50 in the experiment on HOP-92 NSCLC was 1.39 µM; in the experiment with SN12C renal, 10 µM; with NCI-H226 lung it was 9.85 µM; in the experiment with U251 CNS, 9.64 µM; with NCI/ADR-RES ovarian it was 7.99 µM; in the experiment with OVCAR-4 ovarian, 5.56 µM. Besides, the GI50 is 7.21 µM in the experiment with HCT-15 colon and 22.5 µM in the experiment on EKVX NSCLC. Moreover, the TGI came to 15.7 µM with HOP-92 NSCLC; 24.9 µM with SN12C renal; 25 µM with NCI-H226 lung; 22 µM with U251 CNS; 25 µM in the experiment on NCI/ADR-RES ovarian; 22.7 µM in the experiment with OVCAR-4 ovarian. The TGI in the experiment with HCT-15 colon is 15.7 µM; in the experiment on EKVX NSCLC, more than 50 µM.
With `C#CCN(C)C(=O)N(CC#C)N=O`, the TGI in the experiment with HOP-92 NSCLC, in the experiment on SN12C renal, in the experiment on U251 CNS, with HL-60(TB) leukemia, in the experiment with OVCAR-4 ovarian and in the experiment with HCT-15 colon was more than 100 µM throughout. For the same compound, the TGI in the experiment with EKVX NSCLC is more than 100 µM.
